Laboratory results from patent US8486965B2, “Pyrrolo[2,3-b]pyridine derivative and use thereof for treatment of cancer” (Takeda Pharmaceutical Company Limited, priority 2009, dated 2013).

The molecules below were run on Hedgehog signal transduction system (Smo) (assay: Gli reporter luciferase assay in NIH-3T3/Gli reporter cells stimulated with mouse Shh-N end fragment). Details: NIH3T3; 1 μM compound; NIH-3T3/Gli reporter cells with mouse Shh-N end fragment culture supernatant, 48 hr; luciferase activity, control without compound as 100; read-out: inhibition rate (%) at 1 μM.
Assay type: cell-based
Excerpt: Inhibition of the Hedgehog signal transduction system can be measured, for example, by quantifying a decrease in the expression level of a reporter gene connected to the downstream of the Gli binding site based on the fluorescence intensity according to the following Experimental Example 1. Alternatively, it can be measured by quantifying the expression of Gli-1 mRNA in a cell extract by quantitative PCR method and the like. A compound that inhibits Hedgehog signal targets Smo, which can be confirmed, for example, by binding fluorescence-labeled Cyclopamine and a test compound to cells expressing Smo, measuring the fluorescence level of the cell, and comparing the value with that without addition of a test compound to find a decrease.
Gli reporter plasmid was constructed by inserting 8×Gli-binding site and chicken δ-crystalline promoter into the upstream of luc+ of pGL3 (Promega).
prepared in reference to the base sequence described in GenBank accession No.; X02187, and chicken genome DNA (Clontech) as a template. PCR reaction was performed using Pfu Turbo (Stratagene) and following the attached protocol. The obtained 108 bp fragment was digested with restriction enzymes BglII and HindIII, and inserted into BglII-HindIII site of pGL3 to give plasmid pGL3/δ-cry promoter.
As 8× Gli-binding site, a sequence containing eight 9-bp Gli bound consensus sequences (GACCACCCA) described in Yoon et al., J. Biol. Chem., vol. 273, pages 3496-3501 (1998) was prepared from synthetic DNA. That is, two synthetic DNAs,
were heat treated at 95° C. for 2 minutes, and incubated at 37° C. for 1 hr for annealing to give a double stranded DNA of the above-mentioned two synthetic DNAs. The obtained double stranded DNA was digested with restriction enzymes BglII and KpnI, and the obtained DNA fragment was inserted into BglII-KpnI site of pGL3/δ-cry promoter to construct plasmid pGL3/δ-cry promoter, 8× Gli binding site, i.e., Gli reporter plasmid. 2. Construction of Plasmid for Expression of Mouse Shh-N End Fragment
As a material for construction of plasmid for Shh-N end fragment expression, mouse Shh cDNA was cloned at first.
The mouse Shh cDNA was cloned by Nested PCR method using mouse 11-day fetus cDNA (Clontech) as a template. The primer sequence was prepared in reference to the base sequence described in GenBank accession No.; NM_009170.
Using the mouse Shh cDNA sequence obtained as mentioned above as a template, a partial cDNA sequence wherein stop codon (TGA) was added to 3′-terminal of cDNA sequence encoding 1st to 198th amino acid sequence of mouse Shh was obtained by PCR method. As the primer set,
In the manner mentioned above, a plasmid for mouse Shh-N end fragment expression, pcDNA3.1/mShh-N, was constructed.
HEK293 cells were grown in D-MEM medium (Invitrogen) containing 10% fetal bovine serum in a 10 cm dish and pcDNA3.1/mShh-N was introduced into the cells using FuGENE6 (Roche Applied Science). Thereafter, the HEK293 cells were cultured in a carbon dioxide gas incubator at 37° C. for 24 hours, and the medium was exchanged with D-MEM medium (Invitrogen) containing 2% fetal bovine serum. After culturing for 48 hr, culture supernatant containing recombinant type mouse Shh-N end fragment was obtained by filtration using a filter ([…]).
Using D-MEM (Invitrogen) containing 10% fetal bovine serum, expression plasmid pcDNA3:1 and Gli reporter plasmid (pGL3/δ-cry promoter, 8× Gli binding site) produced by the method of Experimental Example 1 were introduced into NIH-3T3 cells grown in a 10 cm dish by the use of FuGENE6 (Roche Applied Science).
After culture for 24 hr, the cells were recovered, suspended in D-MEM medium containing 10% fetal bovine serum and supplemented with Geneticin (Life Technologies Oriental, Inc.) to a final concentration of 500 μg/ml, diluted to 10^4 cells/ml, plated on a 96 well plate, and cultured in a carbon dioxide gas incubator at 37° C. to give Geneticin resistant transformed cell line. […]
In the case of CCc1cc2c(nc1-c1ccccc1)c(OC(C)C)c(C(=O)NC1CCN(C(=O)CO)CC1)n2C [Example 131, 6-ethyl-N-[1-(hydroxyacetyl)piperidin-4-yl]-1-methyl-3-(1-methylethoxy)-5-phenyl-1H-pyrrolo[3,2-b]pyridine-2-carboxamide], the inhibition at 1 µM is reported as 82%.
Work on CCc1cc2c(nc1-c1ccc(F)cc1)c(OC(C)C)c(C(=O)NC1CCN(C(=O)CO)CC1)n2C [Example 132, 6-ethyl-5-(4-fluorophenyl)-N-[1-(hydroxyacetyl)piperidin-4-yl]-1-methyl-3-(1-methylethoxy)-1H-pyrrolo[3,2-b]pyridine-2-carboxamide] yielded an inhibition at 1 µM of 86%.
For CCc1cc2c(nc1NC(=O)c1cccs1)c(OC(C)C)c(C(=O)NC1CCN(C(=O)CO)CC1)n2C [Example 133, 6-ethyl-N-[1-(hydroxyacetyl)piperidin-4-yl]-1-methyl-3-(1-methylethoxy)-5-[(thiophen-2-ylcarbonyl)amino]-1H-pyrrolo[3,2-b]pyridine-2-carboxamide], the inhibition at 1 µM was 90%.
For Cc1cc2c(nc1-c1ccccc1)c(OCC(F)(F)F)c(C(=O)NC1CCN(C(=O)CO)CC1)n2C [Example 136, N-[1-(hydroxyacetyl)piperidin-4-yl]-1,6-dimethyl-5-phenyl-3-(2,2,2-trifluoroethoxy)-1H-pyrrolo[3,2-b]pyridine-2-carboxamide], the inhibition at 1 µM was 95%.
For Cc1nc2c(nc1-c1ccccc1)c(OC(C)C)c(C(=O)NC1CCN(C(=O)CO)CC1)n2C [Example 143, N-[1-(hydroxyacetyl)piperidin-4-yl]-3,5-dimethyl-7-(1-methylethoxy)-2-phenyl-5H-pyrrolo[2,3-b]pyrazine-6-carboxamide], the inhibition at 1 µM was 96%.
CCc1nc2c(nc1-c1ccccc1)c(OCC(F)(F)F)c(C(=O)NC1CCN(C(=O)CO)CC1)n2C [Example 144, 3-ethyl-N-[1-(hydroxyacetyl)piperidin-4-yl]-5-methyl-2-phenyl-7-(2,2,2-trifluoroethoxy)-5H-pyrrolo[2,3-b]pyrazine-6-carboxamide] was tested, and the inhibition at 1 µM was 98%.
In the case of Cc1nc2c(nc1NC(=O)c1ccccc1)c(OCC(F)(F)F)c(C(=O)NC1CCN(C(=O)CO)CC1)n2C [Example 145, N-[1-(hydroxyacetyl)piperidin-4-yl]-3,5-dimethyl-2-[(phenylcarbonyl)amino]-7-(2,2,2-trifluoroethoxy)-5H-pyrrolo[2,3-b]pyrazine-6-carboxamide], the inhibition at 1 µM is reported as 98%.
Work on CCc1cc2c(cc1NC(=O)c1ccccc1)c(OCC(F)(F)F)c(C(=O)NC1CCN(C(=O)CO)CC1)n2C [Example 146, 6-ethyl-N-[1-(hydroxyacetyl)piperidin-4-yl]-1-methyl-5-[(phenylcarbonyl)amino]-3-(2,2,2-trifluoroethoxy)-1H-indole-2-carboxamide] yielded an inhibition at 1 µM of 90%.
Molecule CCc1cc2c(cc1NC(=O)c1ccsc1)c(OCC(F)(F)F)c(C(=O)NC1CCN(C(=O)CO)CC1)n2C [Example 147, 6-ethyl-N-[1-(hydroxyacetyl)piperidin-4-yl]-1-methyl-5-[(thiophen-3-ylcarbonyl)amino]-3-(2,2,2-trifluoroethoxy)-1H-indole-2-carboxamide] has an inhibition at 1 µM of 91%.
Molecule CCc1cc2c(cc1NC(=O)c1ccsc1)c(OC(C)C)c(C(=O)NC1CCN(C(=O)CO)CC1)n2C [Example 148, 6-ethyl-N-[1-(hydroxyacetyl)piperidin-4-yl]-1-methyl-3-(1-methylethoxy)-5-[(thiophen-3-ylcarbonyl)amino]-1H-indole-2-carboxamide] has an inhibition at 1 µM of 98%.
CCc1cc2sc(C(=O)NC3CCN(C(=O)CO)CC3)c(OCC(F)(F)F)c2cc1NC(=O)c1ccccc1 [Example 149, 6-ethyl-N-[1-(hydroxyacetyl)piperidin-4-yl]-5-[(phenylcarbonyl)amino]-3-(2,2,2-trifluoroethoxy)-1-benzothiophene-2-carboxamide] gave an inhibition at 1 µM of 85%.
With CCc1cc2sc(C(=O)NC3CCN(C(=O)CO)CC3)c(OCC(F)(F)F)c2cc1NC(=O)c1ccsc1 [Example 150, 6-ethyl-N-[1-(hydroxyacetyl)piperidin-4-yl]-5-[(thiophen-3-ylcarbonyl)amino]-3-(2,2,2-trifluoroethoxy)-1-benzothiophene-2-carboxamide] the inhibition at 1 µM was 89%.
Molecule CCc1cc2sc(C(=O)NC3CCN(C(=O)CO)CC3)c(OC(C)C)c2cc1NC(=O)c1ccccc1 [Example 151, 6-ethyl-N-[1-(hydroxyacetyl)piperidin-4-yl]-3-(1-methylethoxy)-5-[(phenylcarbonyl)amino]-1-benzothiophene-2-carboxamide] has an inhibition at 1 µM of 98%.
CCc1cc2sc(C(=O)NC3CCN(C(=O)CO)CC3)c(OC(C)C)c2cc1NC(=O)c1ccsc1 [Example 152, 6-ethyl-N-[1-(hydroxyacetyl)piperidin-4-yl]-3-(1-methylethoxy)-5-[(thiophen-3-ylcarbonyl)amino]-1-benzothiophene-2-carboxamide] gave an inhibition at 1 µM of 97%.
In the case of CCc1cc2sc(C(=O)NC3CCN(C(=O)CO)CC3)c(OC(C)C)c2cc1NC(=O)c1cccs1 [Example 153, 6-ethyl-N-[1-(hydroxyacetyl)piperidin-4-yl]-3-(1-methylethoxy)-5-[(thiophen-2-ylcarbonyl)amino]-1-benzothiophene-2-carboxamide], the inhibition at 1 µM is reported as 97%.
CCc1cc2sc(C(=O)NC3CCN(C(=O)CO)CC3)c(OC(C)C)c2cc1NC(=O)c1ccc(F)cc1 [Example 154, 6-ethyl-5-{[(4-fluorophenyl)carbonyl]amino}-N-[1-(hydroxyacetyl)piperidin-4-yl]-3-(1-methylethoxy)-1-benzothiophene-2-carboxamide] was tested, and the inhibition at 1 µM was 97%.
For Cc1nc2c(cc1NC(=O)c1ccccc1)c(OC(C)C)c(C(=O)NC1CCN(C(=O)CO)CC1)n2C [Example 155, N-[1-(hydroxyacetyl)piperidin-4-yl]-1,6-dimethyl-3-(1-methylethoxy)-5-[(phenylcarbonyl)amino]-1H-pyrrolo[2,3-b]pyridine-2-carboxamide], the inhibition at 1 µM was 99%.
Molecule CCc1nc2c(nc1NC(=O)c1ccccc1)c(OCC(F)(F)F)c(C(=O)NC1CCN(C(=O)CO)CC1)n2C [Example 160, 3-ethyl-N-[1-(hydroxyacetyl)piperidin-4-yl]-5-methyl-2-[(phenylcarbonyl)amino]-7-(2,2,2-trifluoroethoxy)-5H-pyrrolo[2,3-b]pyrazine-6-carboxamide] has an inhibition at 1 µM of 99%.
CCc1nc2c(nc1NC(=O)c1ccc(F)cc1)c(OC(C)C)c(C(=O)NC1CCN(C(=O)CO)CC1)n2C [Example 162, 3-ethyl-2-{[(4-fluorophenyl)carbonyl]amino}-N-[1-(hydroxyacetyl)piperidin-4-yl]-5-methyl-7-(1-methylethoxy)-5H-pyrrolo[2,3-b]pyrazine-6-carboxamide] showed an inhibition at 1 µM of 100%.
CCc1nc2c(nc1NC(=O)c1ccccc1)c(OC(C)C)c(C(=O)NC1CCN(C(=O)CO)CC1)n2C [Example 163, 3-ethyl-N-[1-(hydroxyacetyl)piperidin-4-yl]-5-methyl-7-(1-methylethoxy)-2-[(phenylcarbonyl)amino]-5H-pyrrolo[2,3-b]pyrazine-6-carboxamide] showed an inhibition at 1 µM of 98%.
Cc1nc2c(nc1NC(=O)c1ccccc1)c(OC(C)C)c(C(=O)NC1CCN(C(=O)CO)CC1)n2C [Example 164, N-[1-(hydroxyacetyl)piperidin-4-yl]-3,5-dimethyl-7-(1-methylethoxy)-2-[(phenylcarbonyl)amino]-5H-pyrrolo[2,3-b]pyrazine-6-carboxamide] was tested, and the inhibition at 1 µM was 99%.
